US20200405697A1, “Antitumor Agent” (Taiho Pharmaceutical Co., Ltd, priority 2017, published 2020)

Tests used:
[1] = tested on: A549 (Human lung cancer cell line); test: Effect of combination of sulfonamide compound and other antitumor agent (CellTiter-Glo, combination index): A549
Procedure: (§1) Each cell line was seeded at 90 L/well to a 96-well culture plate (Thermo Fisher Scientific, Inc.) according to the above tables. The cell-seeded plate was cultured in an incubator set to 37° C. and 500 CO2. On the day following seeding, varying concentrations of the sulfonamide compound and the other antitumor agent were added in combination to the cells. […] The serial dilutions of each compound, or DW was added at 5μL/well to the plate such that each compound and DW, or the sulfonamide compound and the other antitumor agent were combined. […] The plate after the addition was cultured at 37° C. for 3 days under 5% CO2 conditions.
(§2) Three days later, CellTiter-Glo(R) 2.0 Reagent (Promega Corporation) was added at 100 μL/well, and the amount of luminescence was measured using a plate reader EnSpire(R) Multimode Plate Reader (PerkinElmer Co., Ltd.).
(§3) An average value from 3 wells was calculated as to each drug condition from the obtained data, and cell survival rate normalized against control wells supplemented with the vehicle (DW) was calculated. A Fa (fractional inhibition) value was calculated by subtracting the cell survival rate from 1.

[2] = tested on: MV-4-11 (Human blood cancer cell line); test: Effect of combination of sulfonamide compound and other antitumor agent (CellTiter-Glo, combination index): MV-4-11
Procedure: as §1, §2, §3

[3] = Example Compound 14 874 nM + Cytarabine 72.2 nM
[4] = Example Compound 14 1310 nM + Cytarabine 108 nM
[5] = Example Compound 14 1970 nM + Cytarabine 163 nM
[6] = Example Compound 14 2950 nM + Cytarabine 244 nM
[7] = Example Compound 14 4420 nM + Cytarabine 365 nM
[8] = Example Compound 209A 188 nM + Cytarabine 72.2 nM
[9] = Example Compound 209A 282 nM + Cytarabine 108 nM
[10] = Example Compound 209A 635 nM + Cytarabine 244 nM
[11] = Example Compound 209A 952 nM + Cytarabine 365 nM
[12] = Example Compound 235A 780 nM + Cytarabine 111 nM
[13] = Example Compound 235A 1170 nM + Cytarabine 166 nM
[14] = Example Compound 235A 1750 nM + Cytarabine 249 nM
[15] = Example Compound 5 247 nM + Cytarabine 175 nM
[16] = Example Compound 5 555 nM + Cytarabine 393 nM
[17] = Example Compound 5 833 nM + Cytarabine 590 nM
[18] = Example Compound 5 1250 nM + Cytarabine 885 nM
[19] = Example Compound 14 519 nM + Cytarabine 175 nM
[20] = Example Compound 14 1170 nM + Cytarabine 394 nM
[21] = Example Compound 14 1750 nM + Cytarabine 589 nM
[22] = Example Compound 14 2630 nM + Cytarabine 886 nM
[23] = Example Compound 209A 96.6 nM + Cytarabine 175 nM
[24] = Example Compound 209A 217 nM + Cytarabine 393 nM
[25] = Example Compound 209A 326 nM + Cytarabine 590 nM
[26] = Example Compound 235A 90.1 nM + Cytarabine 116 nM
[27] = Example Compound 235A 135 nM + Cytarabine 174 nM
[28] = Example Compound 235A 304 nM + Cytarabine 393 nM
[29] = Example Compound 235A 456 nM + Cytarabine 589 nM
[30] = Example Compound 235A 684 nM + Cytarabine 884 nM
[31] = Example Compound 14 1970 nM + Decitabine 1340 nM
[32] = Example Compound 14 2950 nM + Decitabine 2000 nM
[33] = Example Compound 14 4420 nM + Decitabine 3000 nM
[34] = Example Compound 209A 635 nM + Decitabine 2000 nM
[35] = Example Compound 235A 520 nM + Decitabine 1340 nM
[36] = Example Compound 235A 780 nM + Decitabine 2020 nM
[37] = Example Compound 235A 1170 nM + Decitabine 3020 nM
[38] = Example Compound 5 247 nM + Decitabine 50.2 nM
[39] = Example Compound 5 370 nM + Decitabine 75.2 nM
[40] = Example Compound 5 555 nM + Decitabine 113 nM
[41] = Example Compound 5 833 nM + Decitabine 169 nM
[42] = Example Compound 5 1250 nM + Decitabine 254 nM
[43] = Example Compound 14 519 nM + Decitabine 50.1 nM
[44] = Example Compound 14 778 nM + Decitabine 75.2 nM
[45] = Example Compound 14 1170 nM + Decitabine 113 nM
[46] = Example Compound 14 1750 nM + Decitabine 169 nM
[47] = Example Compound 14 2630 nM + Decitabine 254 nM
[48] = Example Compound 209A 64.4 nM + Decitabine 33.4 nM
[49] = Example Compound 209A 96.6 nM + Decitabine 50.1 nM
[50] = Example Compound 209A 217 nM + Decitabine 113 nM
[51] = Example Compound 209A 326 nM + Decitabine 169 nM
[52] = Example Compound 235A 90.1 nM + Decitabine 33.4 nM
[53] = Example Compound 235A 135 nM + Decitabine 50.1 nM
[54] = Example Compound 235A 304 nM + Decitabine 113 nM
[55] = Example Compound 235A 456 nM + Decitabine 169 nM
[56] = Example Compound 235A 684 nM + Decitabine 254 nM
[57] = Example Compound 14 1310 nM + Guadecitabine 326 nM
[58] = Example Compound 14 1970 nM + Guadecitabine 490 nM
[59] = Example Compound 14 2950 nM + Guadecitabine 734 nM
[60] = Example Compound 14 4420 nM + Guadecitabine 1100 nM
[61] = Example Compound 209A 635 nM + Guadecitabine 734 nM
[62] = Example Compound 235A 520 nM + Guadecitabine 469 nM
[63] = Example Compound 235A 780 nM + Guadecitabine 704 nM
[64] = Example Compound 235A 1170 nM + Guadecitabine 1060 nM
[65] = Example Compound 5 164 nM + Guadecitabine 11.8 nM
[66] = Example Compound 5 247 nM + Guadecitabine 17.8 nM
[67] = Example Compound 5 370 nM + Guadecitabine 26.7 nM
[68] = Example Compound 5 555 nM + Guadecitabine 40.1 nM
[69] = Example Compound 5 833 nM + Guadecitabine 60.2 nM
[70] = Example Compound 5 1250 nM + Guadecitabine 90.3 nM
[71] = Example Compound 14 519 nM + Guadecitabine 17.8 nM
[72] = Example Compound 14 778 nM + Guadecitabine 26.7 nM
[73] = Example Compound 14 1170 nM + Guadecitabine 40.2 nM
[74] = Example Compound 14 1750 nM + Guadecitabine 60.1 nM
[75] = Example Compound 14 2630 nM + Guadecitabine 90.3 nM
[76] = Example Compound 209A 96.6 nM + Guadecitabine 17.8 nM
[77] = Example Compound 209A 217 nM + Guadecitabine 40.0 nM
[78] = Example Compound 209A 326 nM + Guadecitabine 60.1 nM
[79] = Example Compound 235A 90.1 nM + Guadecitabine 11.9 nM
[80] = Example Compound 235A 135 nM + Guadecitabine 17.8 nM
[81] = Example Compound 235A 304 nM + Guadecitabine 40.1 nM
[82] = Example Compound 235A 456 nM + Guadecitabine 60.1 nM
[83] = Example Compound 235A 684 nM + Guadecitabine […]

## Nc1ccn([C@@H]2O[C@H](CO)[C@@H](O)[C@@H]2O)c(=O)n1 [Cytarabine, cytarabine]
[1]; [3]
  CI value: 0.670
  Fa value: 0.3745
[1]; [4]
  CI value: 0.790
  Fa value: 0.4356
[1]; [5]
  CI value: 0.616
  Fa value: 0.6170
[1]; [6]
  CI value: 0.498
  Fa value: 0.7754
[1]; [7]
  CI value: 0.490
  Fa value: 0.8591
[1]; [8]
  CI value: 0.777
  Fa value: 0.3588
[1]; [9]
  CI value: 0.759
  Fa value: 0.4675
[1]; [10]
  CI value: 0.474
  Fa value: 0.7994
[1]; [11]
  CI value: 0.574
  Fa value: 0.8410
[1]; [12]
  CI value: 0.878
  Fa value: 0.4015
[1]; [13]
  CI value: 0.693
  Fa value: 0.6327
[1]; [14]
  CI value: 0.581
  Fa value: 0.8184
[2]; [15]
  CI value: 0.638
  Fa value: 0.4093
[2]; [16]
  CI value: 0.553
  Fa value: 0.9212
[2]; [17]
  CI value: 0.366
  Fa value: 0.9948
[2]; [18]
  CI value: 0.386
  Fa value: 0.9986
[2]; [19]
  CI value: 0.766
  Fa value: 0.2908
[2]; [20]
  CI value: 0.599
  Fa value: 0.8743
[2]; [21]
  CI value: 0.387
  Fa value: 0.9860
[2]; [22]
  CI value: 0.269
  Fa value: 0.9984
[2]; [23]
  CI value: 0.739
  Fa value: 0.5055
[2]; [24]
  CI value: 0.510
  Fa value: 0.9736
[2]; [25]
  CI value: 0.330
  Fa value: 0.9981
[2]; [26]
  CI value: 0.740
  Fa value: 0.1704
[2]; [27]
  CI value: 0.645
  Fa value: 0.4683
[2]; [28]
  CI value: 0.510
  Fa value: 0.9522
[2]; [29]
  CI value: 0.365
  Fa value: 0.9958
[2]; [30]
  CI value: 0.374
  Fa value: 0.9989

## Nc1ncn([C@H]2C[C@H](O)[C@@H](CO)O2)c(=O)n1 [Decitabine, decitabine]
[1]; [31]
  CI value: 0.542
  Fa value: 0.3867
[1]; [32]
  CI value: 0.577
  Fa value: 0.5183
[1]; [33]
  CI value: 0.602
  Fa value: 0.6737
[1]; [34]
  CI value: 0.569
  Fa value: 0.5615
[1]; [35]
  CI value: 0.570
  Fa value: 0.2897
[1]; [36]
  CI value: 0.567
  Fa value: 0.4383
[1]; [37]
  CI value: 0.650
  Fa value: 0.5537
[2]; [38]
  CI value: 0.685
  Fa value: 0.3382
[2]; [39]
  CI value: 0.725
  Fa value: 0.4753
[2]; [40]
  CI value: 0.709
  Fa value: 0.6924
[2]; [41]
  CI value: 0.693
  Fa value: 0.8888
[2]; [42]
  CI value: 0.608
  Fa value: 0.9844
[2]; [43]
  CI value: 0.707
  Fa value: 0.3361
[2]; [44]
  CI value: 0.872
  Fa value: 0.4089
[2]; [45]
  CI value: 0.849
  Fa value: 0.5994
[2]; [46]
  CI value: 0.717
  Fa value: 0.8350
[2]; [47]
  CI value: 0.599
  Fa value: 0.9588
[2]; [48]
  CI value: 0.793
  Fa value: 0.2551
[2]; [49]
  CI value: 0.839
  Fa value: 0.3812
[2]; [50]
  CI value: 0.715
  Fa value: 0.8536
[2]; [51]
  CI value: 0.627
  Fa value: 0.9689
[2]; [52]
  CI value: 0.725
  Fa value: 0.2126
[2]; [53]
  CI value: 0.757
  Fa value: 0.3356
[2]; [54]
  CI value: 0.760
  Fa value: 0.7532
[2]; [55]
  CI value: 0.687
  Fa value: 0.9339
[2]; [56]
  CI value: 0.535
  Fa value: 0.9935

## Nc1ncn([C@H]2C[C@H](OP(=O)(O)OC[C@H]3O[C@@H](n4cnc5c(=O)[nH]c(N)nc54)C[C@@H]3O)[C@@H](CO)O2)c(=O)n1 [Guadecitabine, guadecitabine]
[1]; [57]
  CI value: 0.561
  Fa value: 0.2913
[1]; [58]
  CI value: 0.503
  Fa value: 0.4560
[1]; [59]
  CI value: 0.582
  Fa value: 0.5553
[1]; [60]
  CI value: 0.620
  Fa value: 0.6875
[1]; [61]
  CI value: 0.522
  Fa value: 0.6179
[1]; [62]
  CI value: 0.568
  Fa value: 0.2878
[1]; [63]
  CI value: 0.583
  Fa value: 0.4237
[1]; [64]
  CI value: 0.670
  Fa value: 0.5377
[2]; [65]
  CI value: 0.640
  Fa value: 0.2498
[2]; [66]
  CI value: 0.683
  Fa value: 0.3527
[2]; [67]
  CI value: 0.727
  Fa value: 0.4905
[2]; [68]
  CI value: 0.690
  Fa value: 0.7205
[2]; [69]
  CI value: 0.673
  Fa value: 0.9023
[2]; [70]
  CI value: 0.557
  Fa value: 0.9892
[2]; [71]
  CI value: 0.767
  Fa value: 0.3318
[2]; [72]
  CI value: 0.844
  Fa value: 0.4449
[2]; [73]
  CI value: 0.797
  Fa value: 0.6448
[2]; [74]
  CI value: 0.668
  Fa value: 0.8620
[2]; [75]
  CI value: 0.545
  Fa value: 0.9686
[2]; [76]
  CI value: 0.766
  Fa value: 0.4376
[2]; [77]
  CI value: 0.753
  Fa value: 0.8301
[2]; [78]
  CI value: 0.631
  Fa value: 0.9675
[2]; [79]
  CI value: 0.633
  Fa value: 0.2567
[2]; [80]
  CI value: 0.638
  Fa value: 0.4131
[2]; [81]
  CI value: 0.689
  Fa value: 0.7974
[2]; [82]
  CI value: 0.617
  Fa value: 0.9524
[2]; [83]
  CI value: 0.544
  Fa value: 0.9930
